According to ChEMBL document CHEMBL3351582, “A simple, general approach of allosteric coagulation enzyme inhibition through monosulfated hydrophobic scaffolds” (Bioorg Med Chem Lett, 2014):
Active and inactive are the calls of the source. The rule behind the calls is not given here.

Legend:
[1] = system: COc1cc2occ(C(=O)OC(C)(C)C)c2cc1OCc1nc2ccc(OS(=O)(=O)O)cc2s1; conditions: Homo sapiens; 400 uM
Description: Non-competitive inhibition of human thrombin using spectrozyme TH as substrate assessed as reduction in substrate Vmax at 400 uM by Michaelis-Menten kinetics

[2] = molecular target: Coagulation factor X (Homo sapiens) (UniProt P00742); test: Inhibition of human factor 10a assessed as residual activity at 500 uM by spectrophotometric assay
[3] = molecular target: Coagulation factor XI (Homo sapiens) (UniProt P03951); test: Inhibition of human factor 11a assessed as residual activity at 500 uM by spectrophotometric assay
[4] = molecular target: T1, Coagulation factor VII (Homo sapiens) (UniProt P08709); test: Inhibition of human factor 7a assessed as residual activity at 500 uM by spectrophotometric assay
T1 sequence (whole entry): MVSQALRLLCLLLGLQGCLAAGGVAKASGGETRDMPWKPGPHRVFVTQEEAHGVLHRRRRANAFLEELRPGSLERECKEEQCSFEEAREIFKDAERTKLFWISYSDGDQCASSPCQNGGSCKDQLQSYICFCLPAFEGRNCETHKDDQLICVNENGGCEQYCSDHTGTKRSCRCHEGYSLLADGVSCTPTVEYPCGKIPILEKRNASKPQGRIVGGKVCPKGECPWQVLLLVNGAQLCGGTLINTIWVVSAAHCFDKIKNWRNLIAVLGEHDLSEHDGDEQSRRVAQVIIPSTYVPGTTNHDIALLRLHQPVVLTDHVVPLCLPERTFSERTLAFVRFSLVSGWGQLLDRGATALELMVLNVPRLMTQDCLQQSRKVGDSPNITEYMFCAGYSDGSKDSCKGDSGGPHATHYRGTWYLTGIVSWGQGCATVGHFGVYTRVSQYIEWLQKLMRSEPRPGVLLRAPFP

[5] = molecular target: Prothrombin (Homo sapiens) (UniProt P00734); test: Inhibition of human thrombin using spectrozyme TH as substrate assessed as residual activity at 500 uM by spectrophotometric assay
[6] = molecular target: Coagulation factor IX (Homo sapiens) (UniProt P00740); test: Inhibition of human factor 9a assessed as residual activity at 500 uM by spectrophotometric assay
[7] = molecular target: T2, Coagulation factor XII (Homo sapiens) (UniProt P00748); test: Inhibition of human factor 12a assessed as residual activity at 500 uM by spectrophotometric assay
T2 sequence (whole entry): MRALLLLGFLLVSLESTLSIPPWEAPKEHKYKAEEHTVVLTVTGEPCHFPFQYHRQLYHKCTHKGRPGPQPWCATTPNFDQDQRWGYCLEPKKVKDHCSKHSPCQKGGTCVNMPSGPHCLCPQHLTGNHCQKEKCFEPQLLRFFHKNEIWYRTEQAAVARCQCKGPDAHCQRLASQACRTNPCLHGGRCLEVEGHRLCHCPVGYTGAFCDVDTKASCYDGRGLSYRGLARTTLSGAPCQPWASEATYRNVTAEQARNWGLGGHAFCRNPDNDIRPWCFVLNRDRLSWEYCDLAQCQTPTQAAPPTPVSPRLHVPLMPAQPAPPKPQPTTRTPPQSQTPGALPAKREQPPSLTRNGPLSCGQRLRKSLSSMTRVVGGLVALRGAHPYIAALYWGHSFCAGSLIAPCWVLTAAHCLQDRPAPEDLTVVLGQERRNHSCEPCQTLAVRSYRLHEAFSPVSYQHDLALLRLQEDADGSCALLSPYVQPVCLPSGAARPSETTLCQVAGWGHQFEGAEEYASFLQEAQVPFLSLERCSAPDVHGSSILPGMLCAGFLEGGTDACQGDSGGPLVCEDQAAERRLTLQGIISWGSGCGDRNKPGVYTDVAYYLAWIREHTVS

[8] = molecular target: Prothrombin (Homo sapiens) (UniProt P00734); test: Non-competitive inhibition of human thrombin using spectrozyme TH as substrate assessed as effect on substrate Km at 400 uM by Michaelis-Menten kinetics

Chain of Coagulation factor X (Homo sapiens) (P00742 41-179 limits assumed): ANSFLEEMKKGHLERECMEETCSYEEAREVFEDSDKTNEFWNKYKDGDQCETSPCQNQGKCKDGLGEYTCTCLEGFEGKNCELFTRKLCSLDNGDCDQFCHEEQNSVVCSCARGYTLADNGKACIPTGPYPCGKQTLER
Chain of Coagulation factor X (Homo sapiens) (P00742 235-488 limits assumed): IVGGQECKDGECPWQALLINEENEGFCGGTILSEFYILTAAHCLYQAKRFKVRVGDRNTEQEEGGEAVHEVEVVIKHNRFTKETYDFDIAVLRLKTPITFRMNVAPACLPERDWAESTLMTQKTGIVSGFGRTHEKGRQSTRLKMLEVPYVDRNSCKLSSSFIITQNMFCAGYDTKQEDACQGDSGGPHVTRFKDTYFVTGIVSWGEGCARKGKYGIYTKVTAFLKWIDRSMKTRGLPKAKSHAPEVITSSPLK
Chain of Coagulation factor IX (Homo sapiens) (P00740 47-191 limits assumed): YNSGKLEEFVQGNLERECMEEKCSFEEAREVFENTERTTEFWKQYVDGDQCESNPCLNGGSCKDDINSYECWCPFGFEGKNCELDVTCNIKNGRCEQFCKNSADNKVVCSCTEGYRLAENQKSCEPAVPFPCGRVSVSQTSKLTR
Chain of Coagulation factor IX (Homo sapiens) (P00740 227-461 limits assumed): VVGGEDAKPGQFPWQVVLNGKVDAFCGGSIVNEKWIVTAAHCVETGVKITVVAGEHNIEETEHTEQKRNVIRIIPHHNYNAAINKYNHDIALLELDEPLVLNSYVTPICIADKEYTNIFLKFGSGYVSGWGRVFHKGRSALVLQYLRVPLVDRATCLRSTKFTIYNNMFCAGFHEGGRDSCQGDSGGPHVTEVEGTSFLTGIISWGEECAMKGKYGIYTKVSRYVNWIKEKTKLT
Chain of Coagulation factor XI (Homo sapiens) (P03951 19-387 limits assumed): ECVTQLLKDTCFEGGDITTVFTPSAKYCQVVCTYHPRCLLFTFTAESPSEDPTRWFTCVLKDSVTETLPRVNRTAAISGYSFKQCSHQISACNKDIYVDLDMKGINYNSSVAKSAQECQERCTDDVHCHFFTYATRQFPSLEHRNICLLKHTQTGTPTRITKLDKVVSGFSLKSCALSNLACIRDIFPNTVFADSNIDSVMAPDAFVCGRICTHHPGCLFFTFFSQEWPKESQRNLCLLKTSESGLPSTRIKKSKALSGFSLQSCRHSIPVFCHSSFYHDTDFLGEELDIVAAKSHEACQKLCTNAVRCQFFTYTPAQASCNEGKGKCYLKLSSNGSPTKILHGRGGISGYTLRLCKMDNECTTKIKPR
Chain of Coagulation factor XI (Homo sapiens) (P03951 388-625 limits assumed): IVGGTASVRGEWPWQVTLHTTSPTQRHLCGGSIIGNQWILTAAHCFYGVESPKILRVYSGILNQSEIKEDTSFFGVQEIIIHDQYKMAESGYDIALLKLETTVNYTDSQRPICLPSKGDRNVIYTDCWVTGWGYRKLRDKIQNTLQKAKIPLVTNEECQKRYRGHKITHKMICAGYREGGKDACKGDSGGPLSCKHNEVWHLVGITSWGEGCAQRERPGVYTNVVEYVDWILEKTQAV

| Compound | Vmax [1] | Activity [2] | Activity [3] | Activity [4] | Activity [5] | Activity [6] | Activity [7] | inhibition [8] |
| --- | --- | --- | --- | --- | --- | --- | --- | --- |
| Prothrombin (Homo sapiens) (from UniProt P00734) | 24.5 mAU/min/µM | – | – | – | – | – | – | – |
| CCOC(=O)c1c(COc2cc3c(C(=O)OCC)coc3cc2OC)[nH]c2ccc(OS(=O)(=O)O)cc12 | – | 34% | 111% | 87% | 102% | 98% | 97% | – |
| CCOC(=O)c1c(C)[nH]c2ccc(OCc3c(C(=O)OCC)c4cc(OS(=O)(=O)O)ccc4n3C(=O)OC(C)(C)C)cc12 | – | 0% | 0% | 99% | 42% | 98% | 92% | – |
| CCOC(=O)c1c(COc2cc3c(C(=O)OCC)c(Cc4ccccc4)oc3cc2OC)[nH]c2ccc(OS(=O)(=O)O)cc12 | – | 37% | 0% | 109% | 29% | 98% | 100% | – |
| CCOC(=O)c1c(C)oc2cc(OC)c(OCc3oc4cc(OC)c(OCc5nc6ccc(OS(=O)(=O)O)cc6s5)cc4c3C(=O)OCC)cc12 | – | 98% | 62% | 100% | 104% | 82% | 100% | – |
| CCOC(=O)c1c(C)[nH]c2ccc(OS(=O)(=O)O)cc12 | – | 120% | 114% | 90% | 100% | 98% | 90% | – |
| Cc1nc2ccc(OS(=O)(=O)O)cc2s1 | – | 77% | 52% | 91% | 99% | 94% | 95% | – |
| CCOC(=O)c1c(COc2cc3c(C(=O)OCC)c(COc4cc5c(C(=O)OCC)c(C)oc5cc4OC)oc3cc2OC)[nH]c2ccc(OS(=O)(=O)O)cc12 | – | 33% | 16% | 92% | 46% | 109% | 97% | – |
| COc1cc2occ(C(=O)OC(C)(C)C)c2cc1OCc1nc2ccc(OS(=O)(=O)O)cc2s1 | – | 22% | 0% | 98% | 30% | 101% | 100% | Active |
| CCOC(=O)c1c(Cc2ccccc2)oc2cc(OC)c(OCc3nc4ccc(OS(=O)(=O)O)cc4s3)cc12 | – | 90% | 88% | 100% | 108% | 90% | 96% | – |
| Cc1nc2ccc(OCc3nc4ccc(OS(=O)(=O)O)cc4s3)cc2s1 | – | 105% | 120% | 102% | 48% | 110% | 97% | – |
